This note sets out measurements from patent US11377425B1, “Small molecule modulators of IL-17” (LEO Pharma A/S, priority 2018, dated 2022).

The test deals with T1, human IL-17AA (Homo sapiens, UniProt Q16552).
T1 construct: host or cells: HEK (human embryonic kidney) cells
T1 sequence (Q16552 24-155): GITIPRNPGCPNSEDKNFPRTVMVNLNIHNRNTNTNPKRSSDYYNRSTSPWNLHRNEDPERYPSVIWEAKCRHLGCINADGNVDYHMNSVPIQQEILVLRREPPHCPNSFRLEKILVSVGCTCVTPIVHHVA
Put plainly: IL-8 release assay in human epithelial keratinocytes adult (HEKa). Particulars: HEKa cells, 3 ng/mL HEK-human IL-17AA + 10 ng/mL human TNFalpha; read-out: Rel EC50 IL-8 release assay. Type of test: cell-based. The method, boiled down: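 IL-8 release, quantified by HTRF and normalized to controls, reports IL-17 signaling in HEKa cells treated with compound plus final 3 ng/mL IL-17AA (HEK-derived) and 10 ng/mL TNF-alpha for 68-72 h; TNF-alpha-only wells set 100% inhibition. Four-parameter logistic fits (r^2>0.9) give relative IC50 and Emax; PrestoBlue flags cytotoxicity.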

Structures are written as SMILES. pEC50: −log10 of the molar value.

With `Cc1n[nH]c(C)c1-c1ccc(NC(=O)[C@@H](NC(=O)c2ccnn2C)[C@@H]2CCCC3(CC3)C2)cc1` [Example 241, N-[(1S)-2-[4-(3,5-dimethyl-1H-pyrazol-4-yl)anilino]-2-oxo-1-[(7R)-spiro[2.5]octan-7-yl]ethyl]-2-methyl-pyrazole-3-carboxamide], the pEC50 is 6.00 to 7.00. As for `Cc1n[nH]c(C)c1-c1ccc(NC(=O)[C@H](CC2CC2)NC(=O)c2ccnn2C)cc1` [Example 243, N-[(1S)-1-(cyclopropylmethyl)-2-[4-(3,5-dimethyl-1H-pyrazol-4-yl)anilino]-2-oxo-ethyl]-2-methyl-pyrazole-3-carboxamide], the pEC50 is less than 6.00. With `Cc1n[nH]c(C)c1-c1ccc(NC(=O)[C@@H](NC(=O)c2ccnn2C)C(C(C)C)C(C)C)cc1` [Example 244], the pEC50 was greater than 7.00.

Take `Cc1n[nH]c(C)c1-c1ccc(NC(=O)[C@@H](NC(=O)c2ccnn2C)C2C(C)(C)C2(C)C)cc1` [Example 245, N-[(1S)-2-[4-(3,5-dimethyl-1H-pyrazol-4-yl)anilino]-2-oxo-1-(2,2,3,3-tetramethylcyclopropyl)ethyl]-2-methyl-pyrazole-3-carboxamide]: the pEC50 was 6.00 to 7.00. The value for `Cc1n[nH]c(C)c1-c1ccc(NC(=O)[C@@H](NC(=O)c2ccnn2C)C2[C@H]3CCCC[C@@H]23)cc1` (stereo partly drawn) [Example 246, N-[(1S)-2-[4-(3,5-dimethyl-1H-pyrazol-4-yl)anilino]-1-[(1S,6R)-norcaran-7-yl]-2-oxo-ethyl]-2-methyl-pyrazole-3-carboxamide] was 6.00 to 7.00; that for `Cc1n[nH]c(C)c1-c1ccc(NC(=O)[C@@H](NC(=O)c2ccnn2C)[C@H]2CCc3c(F)cc(F)cc32)cc1` [Example 249, N-[(1S)-1-[(1S)-4,6-difluoroindan-1-yl]-2-[4-(3,5-dimethyl-1H-pyrazol-4-yl)anilino]-2-oxo-ethyl]-2-methyl-pyrazole-3-carboxamide] was greater than 7.00; that for `Cc1n[nH]c(C)c1-c1ccc(NC(=O)[C@@H](NC(=O)c2ccnn2C)[C@H]2CCCC3(CC3)C2)cc1` [Example 250, N-[(1S)-2-[4-(3,5-dimethyl-1H-pyrazol-4-yl)anilino]-2-oxo-1-[(7S)-spiro[2.5]octan-7-yl]ethyl]-2-methyl-pyrazole-3-carboxamide] was greater than 7.00. `Cc1n[nH]c(C)c1-c1ccc(NC(=O)C(NC(=O)c2ccnn2C(C)C)C2CCCC2C)cc1` (stereo not drawn) [Example 251, N-[2-[4-(3,5-dimethyl-1H-pyrazol-4-yl)anilino]-1-(2-methylcyclopentyl)-2-oxo-ethyl]-2-isopropyl-pyrazole-3-carboxamide]: the pEC50 is greater than 7.00. In the case of `Cc1n[nH]c(C)c1-c1ccc(NC(=O)[C@H](CC2CCC(F)(F)CC2)NC(=O)c2ccnn2C)cc1` [Example 253, N-[(1S)-1-[(4,4-difluorocyclohexyl)methyl]-2-[4-(3,5-dimethyl-1H-pyrazol-4-yl)anilino]-2-oxo-ethyl]-2-methyl-pyrazole-3-carboxamide], the pEC50 is less than 6.00.

As to `Cc1n[nH]c(C)c1-c1ccc(NC(=O)C(NC(=O)c2ccnn2C)[C@H]2CCCc3ccc(F)cc32)cc1` (stereo partly drawn) [Example 261], the pEC50 is greater than 7.00. The value for `Cc1n[nH]c(C)c1-c1ccc(NC(=O)[C@@H](NC(=O)c2ccnn2C)[C@@H]2CCCc3c(F)cc(Br)cc32)cc1` [Example 262] was 6.00 to 7.00; that for `Cc1n[nH]c(C)c1-c1ccc(NC(=O)[C@@H](NC(=O)c2conc2C(C)C)C2CCC3(CC2)CC3)cc1` [Example 263, N-[(1S)-2-[4-(3,5-dimethyl-1H-pyrazol-4-yl)anilino]-2-oxo-1-spiro[2.5]octan-6-yl-ethyl]-3-isopropyl-isoxazole-4-carboxamidet] was 6.00 to 7.00. Under `CCn1nccc1C(=O)N[C@H](C(=O)Nc1ccc(-c2c(C)n[nH]c2C)cc1)C1CCC2(CC1)CC2` [Example 264, N-[(1S)-2-[4-(3,5-dimethyl-1H-pyrazol-4-yl)anilino]-2-oxo-1-spiro[2.5]octan-6-yl-ethyl]-2-ethyl-pyrazole-3-carboxamide] stands 6.00 to 7.00; under `Cc1n[nH]c(C)c1-c1ccc(NC(=O)C(NC(=O)c2ccnn2C(C)C)C2CCC(C)(C)C2)cc1` (stereo not drawn) [Example 265, N-[1-(3,3-dimethylcyclopentyl)-2-[4-(3,5-dimethyl-1H-pyrazol-4-yl)anilino]-2-oxo-ethyl]-2-isopropyl-pyrazole-3-carboxamide], 6.00 to 7.00. For `Cc1n[nH]c(C)c1-c1ccc(NC(=O)C(NC(=O)c2ccnn2C)C2CCC(C)(C)C2)cc1` (stereo not drawn) [Example 266, N-[1-(3,3-dimethylcyclopentyl)-2-[4-(3,5-dimethyl-1H-pyrazol-4-yl)anilino]-2-oxo-ethyl]-2-methyl-pyrazole-3-carboxamide], the pEC50 was 6.00 to 7.00. In the case of `Cc1n[nH]c(C)c1-c1ccc(NC(=O)[C@@H](NC(=O)c2ccnn2C)C2[C@H]3CCC[C@@H]23)cc1` (stereo partly drawn) [Example 267, N-[(1S)-1-[(1S,5R)-6-bicyclo[3.1.0]hexanyl]-2-[4-(3,5-dimethyl-1H-pyrazol-4-yl)anilino]-2-oxo-ethyl]-2-methyl-pyrazole-3-carboxamide], the pEC50 is less than 6.00. In the case of `CCn1nncc1C(=O)N[C@H](C(=O)Nc1ccc(-c2c(C)n[nH]c2C)cc1)C(C1CC1)C1CC1` [Example 270, N-[(1S)-1-(dicyclopropylmethyl)-2-[4-(3,5-dimethyl-1H-pyrazol-4-yl)anilino]-2-oxo-ethyl]-3-ethyl-triazole-4-carboxamide], the pEC50 is 6.00 to 7.00. The value for `CCn1nncc1C(=O)N[C@H](C(=O)Nc1ccc(-c2c(C)n[nH]c2C)cc1)C(C1CCC1)C1CCC1` [Example 271, N-[(1S)-1-[di(cyclobutyl)methyl]-2-[4-(3,5-dimethyl-1H-pyrazol-4-yl)anilino]-2-oxo-ethyl]-3-ethyl-triazole-4-carboxamide] was greater than 7.00; that for `Cc1n[nH]c(C)c1-c1ccc(NC(=O)[C@@H](NC(=O)c2cnnn2C)C(C2CCC2)C2CCC2)cc1` [Example 272, N-[(1S)-1-[di(cyclobutyl)methyl]-2-[4-(3,5-dimethyl-1H-pyrazol-4-yl)anilino]-2-oxo-ethyl]-3-methyl-triazole-4-carboxamide] was greater than 7.00. Under `Cc1n[nH]c(C)c1-c1ccc(NC(=O)[C@@H](NC(=O)c2cnnn2C(C)C)C(C2CCC2)C2CCC2)cc1` [Example 273, N-[(1S)-1-[di(cyclobutyl)methyl]-2-[4-(3,5-dimethyl-1H-pyrazol-4-yl)anilino]-2-oxo-ethyl]-3-isopropyl-triazole-4-carboxamide] stands greater than 7.00. On to `Cc1nocc1C(=O)N[C@H](C(=O)Nc1ccc(-c2c(C)n[nH]c2C)cc1)C(C1CCC1)C1CCC1` [Example 274, N-[(1S)-1-[di(cyclobutyl)methyl]-2-[4-(3,5-dimethyl-1H-pyrazol-4-yl)anilino]-2-oxo-ethyl]-3-methyl-isoxazole-4-carboxamide], for which the pEC50 was greater than 7.00.

As for `Cc1n[nH]c(C)c1-c1ccc(NC(=O)[C@@H](NC(=O)c2nccn2C)C2CCCCC2)cc1` [Example 275, N-[(1S)-1-cyclohexyl-2-[4-(3,5-dimethyl-1H-pyrazol-4-yl)anilino]-2-oxo-ethyl]-1-methyl-imidazole-2-carboxamide], the pEC50 was less than 6.00. Regarding `CCc1nocc1C(=O)N[C@H](C(=O)Nc1ccc(-c2c(C)n[nH]c2C)cc1)C1CCCCC1` [Example 276, N-[(1S)-1-cyclohexyl-2-[4-(3,5-dimethyl-1H-pyrazol-4-yl)anilino]-2-oxo-ethyl]-3-ethyl-isoxazole-4-carboxamide], the pEC50 was greater than 7.00. `Cc1n[nH]c(C)c1-c1ccc(NC(=O)[C@@H](NC(=O)c2conc2C(C)C)C2CCCCC2)cc1` [Example 277, N-[(1S)-1-cyclohexyl-2-[4-(3,5-dimethyl-1H-pyrazol-4-yl)anilino]-2-oxo-ethyl]-3-isopropyl-isoxazole-4-carboxamide]: the pEC50 is greater than 7.00.

As for `Cc1n[nH]c(C)c1-c1ccc(NC(=O)[C@@H](NC(=O)c2ccnn2C)[C@@H]2CCc3c(F)cc(Br)cc32)cc1` [Example 278, N-[(1S)-1-[(1R)-6-bromo-4-fluoro-indan-1-yl]-2-[4 (3,5-dimethyl-1H-pyrazol-4-yl)anilino]-2-oxo-ethyl]-2-methyl-pyrazole-3-carboxamide], the pEC50 was 6.00 to 7.00. The value for `Cc1n[nH]c(C)c1-c1ccc(NC(=O)[C@@H](NC(=O)c2ccnn2C(C)C)[C@H]2CCOc3c(F)cc(F)cc32)cc1` [Example 279, N-[(1S)-1-[(4S)-6,8-difluorochroman-4-yl]-2-[4-(3,5-dimethyl-1H-pyrazol-4-yl)anilino]-2-oxo-ethyl]-2-isopropyl-pyrazole-3-carboxamide] was greater than 7.00. The value for `Cc1n[nH]c(C)c1-c1ccc(NC(=O)[C@H](CC(C)(C)C)NC(=O)c2ccnn2C)cc1` [Example 281] was 6.00 to 7.00. Under `Cc1n[nH]c(C)c1-c1ccc(NC(=O)C(NC(=O)c2ccnn2C(C)C)C(C)C2CC2)cc1` (stereo not drawn) [Example 282] stands 6.00 to 7.00.

Consider `Cc1n[nH]c(C)c1-c1ccc(NC(=O)[C@@H](NC(=O)c2ccnn2C(C)C)[C@@H](C)C2CC2)cc1` [Example 283, N-[(1S,2S)-2-cyclopropyl-1-[4-(3,5-dimethyl-1H-pyrazol-4-yl)phenyl]carbamoyl] propyl-2-isopropyl-pyrazole-3-carboxamide], for which the pEC50 was 6.00 to 7.00. As to `Cc1n[nH]c(C)c1-c1ccc(NC(=O)[C@@H](NC(=O)c2csc3cnccc23)C2CCCCC2)cc1` [Example 286, N-[(1S)-1-cyclohexyl-2-[4-(3,5-dimethyl-1H-pyrazol-4-yl)anilino]-2-oxo-ethyl]thieno[2,3-c]pyridine-3-carboxamide], the pEC50 was 6.00 to 7.00.

By pEC50 is commonly meant the negative decadic logarithm of the EC50, by convention in mol/L.
